Laboratory results as given in PMC11400632, “Substrate selectivity and inhibition of the human lysyl hydroxylase JMJD7” (Protein Science : A Publication of the Protein Society, 2024).

What was measured:
Type in all cases: biochemical
human JMJD7 [1] = target: T1, human JMJD7 (Homo sapiens, UniProt P0C870); assay: LC-MS assay of JMJD7-catalyzed hydroxylation/oxidation of DRG1 peptides; conditions: standard conditions: 2 μM JMJD7, 10 μM peptide, 10 μM 2OG, 2 h
T1 construct: human JMJD7 (residues 1–316) with an N‐terminal His6‐tag; His6 (N); made in house; host or cells: Escherichia coli Rosetta (DE3)
T1 sequence (P0C870 whole entry, the tested form may be a part): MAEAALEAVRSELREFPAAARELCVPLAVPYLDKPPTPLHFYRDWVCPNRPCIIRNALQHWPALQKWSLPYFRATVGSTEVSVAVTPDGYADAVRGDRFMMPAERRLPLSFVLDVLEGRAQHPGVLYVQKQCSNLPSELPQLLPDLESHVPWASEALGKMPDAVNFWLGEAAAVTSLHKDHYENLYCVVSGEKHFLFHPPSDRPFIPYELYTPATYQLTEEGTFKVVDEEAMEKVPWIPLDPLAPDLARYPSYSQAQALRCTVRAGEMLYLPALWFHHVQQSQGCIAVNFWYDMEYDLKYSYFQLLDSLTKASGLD
Outline: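 Recombinant human JMJD7 (2 or 5 μM) with 10 μM DRG1(16–40)-derived peptide, 10 or 20 μM 2OG, 10 μM FAS and 100 μM ascorbate in 50 mM Tris pH 7.5, 2 h at room temperature, then formic acid quench. Hydroxylation (+16 Da) quantified by intact-mass LC–MS (Q-TOF).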

human JMJD7 [2] = target: T1, human JMJD7; assay: SPE-MS time-course and steady-state kinetics of JMJD7-catalyzed hydroxylation; conditions: 1.0 μM peptide, 50 nM JMJD7, SPE-MS time-course
Protocol: Having shown that introduction of γ‐thialysine and γ‐azalysine residues into DRG1 peptides generates substrates that are efficiently hydroxylated by JMJD7, giving nascent products that fragment to give formylglycine, we explored whether these two peptides could compete with the DRG1‐Lys substrate for JMJD7 catalysis. The reactions of DRG1‐Lys, DRG1‐CysNH2 and DRG1‐LysN (1.0 μM) by JMJD7 (50 nM) were investigated as a function of time using SPE‐MS assays.
To quantify the relative efficiencies of DRG1‐Lys and the substrate analog DRG1‐LysE, we carried out kinetics analyses using SPE‐MS assays as the levels of JMJD7‐catalyzed hydroxylation were sufficient for these two substrates.
JMJD7 turnover assays for kinetic studies were performed in 96‐well polypropylene assay plates with 1.0 mL total reaction volume using a series of concentrations of the DRG1 peptide (0.1–5.0 μM), 2OG (20 μM), FAS (10 μM), LAA (100 μM). Reactions were initiated by the addition of JMJD7 (100 nM). MS‐analyses were performed using a RapidFire RF 365 high‐throughput sampling robot (Agilent) attached to an iFunnel Agilent 6550 accurate mass quadrupole time‐of‐flight (Q‐TOF) mass spectrometer operated in the positive ionization mode. The RapidFire RF 365 high‐throughput sampling robot was programmed to aspirate samples from the reaction mixture at the indicated time intervals. Assay samples were loaded onto a C4 solid phase extraction (SPE) cartridge and peptides were eluted using given previous protocols (Tumber et al., [2023]). The % conversion of the hydroxylation reaction were calculated from the ion chromatogram data by integrating peak areas using RapidFire Integrator 4.3.0 software (Agilent).

human JMJD7 [3] = target: T1, human JMJD7; assay: NMR assay of JMJD7-catalyzed reaction of DRG1 peptides; conditions: 200 μM peptide, 10 μM JMJD7, 30 μM FAS, 200 μM 2OG, 500 μM LAA, phosphate buffer 10% D2O, pH 7.4, 1H NMR time-course
Protocol: To validate the fragmentation of the product on hydroxylation of the DRG1‐CysNH2 peptide, we performed NMR studies focusing on the appearance of small molecules, comparing the results with the DRG1‐Lys substrate. Reactions were carried out by incubating the DRG1 peptide (200 μM) in the presence or absence of enzyme (10 μM JMJD7, 30 μM FAS, 200 μM 2OG, 500 μM LAA, phosphate buffer in 10% D2O v/v, pH 7.4). […] The observation of a DRG1‐CysNH2 derived product with two methylene groups (triplets, δ ~ 3.13 ppm, δ ~ 2.75 ppm) together with spiking using a standard solution confirmed the formation of cysteamine (Figure 4c (1), Figure S35a). […] A loss in intensity of the cysteamine peaks was observed over time, possibly indicating oxidation and/or interactions with JMJD7 (Figure S35).
Stock solutions of L‐ascorbate (LAA; 500 mM), 2‐oxoglutarate (2OG; 20 mM), ferrous ammonium sulphate (FAS; 100 mM), and (trimethylsilyl)propionic‐2,2,3,3‐d 4 (TSP‐d 4; 8 mM) were freshly prepared in water on the day NMR assays were run. These stock solutions of LAA, FAS, and 2OG were diluted using aqueous buffer (50 mM sodium phosphate, pH 7.4, 10% v/v D2O) to give FAS (0.3 mM), 2OG (2 mM), and LAA (5 mM). DRG1 peptides were solubilized in buffer to a final concentration of 2 mM for use in NMR assays. […] Turnover was quantified using TSP‐d 4 as an internal standard.

With “ARTQKNCysNH2ATAHHLGLLKARLAKLRR [DRG1‐CysNH2, 25-mer DRG1 (16–40) peptide with γ-thialysine at position 22]” the “fate of the JMJD7 C3-hydroxylation product” value (human JMJD7 [1]) was “fragmentation to form DRG1‐formylglycine and its hydrated products”, the “time to complete JMJD7-catalyzed hydroxylation” value (human JMJD7 [2]) was no more than 4 min and the “time to formation of the cysteamine fragment” value (human JMJD7 [3]) was no more than 15 min.
